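Each compound was tested at five concentrations against cells in 96-well plates for 48 hours. GI50 is the concentration that inhibits growth by half.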 Calls of active or inactive are those of the source. Rule as the data show it: active = GI50 up to about 1.1 µM and inactive = higher.
Assays:
Assay in all cases: inhibition of tumour cell growth, NCI panel, 48 h
A498 = tested on: A498
CCRF-CEM = tested on: CCRF-CEM
EKVX = tested on: EKVX
A549 = tested on: A549
LOX IMVI = tested on: LOX IMVI
SNB-75 = tested on: SNB-75
MOLT-4 = tested on: MOLT-4
COLO 205 = tested on: COLO 205
SK-MEL-28 = tested on: SK-MEL-28
TK-10 = tested on: TK-10
MDA-MB-435 = tested on: MDA-MB-435
HCT-116 = tested on: HCT-116
HCC 2998 = tested on: HCC 2998
KM12 = tested on: KM12
OVCAR-3 = tested on: OVCAR-3
HCT-15 = tested on: HCT-15
SK-OV-3 = tested on: SK-OV-3
NCI-H460 = tested on: NCI-H460
RXF 393 = tested on: RXF 393
SNB-78 = tested on: SNB-78

Row | SMILES | GI50 (A498) | GI50 (CCRF-CEM) | GI50 (EKVX) | GI50 (A549) | GI50 (LOX IMVI) | GI50 (SNB-75) | GI50 (MOLT-4) | GI50 (COLO 205) | GI50 (SK-MEL-28) | GI50 (TK-10) | GI50 (MDA-MB-435) | GI50 (HCT-116) | GI50 (HCC 2998) | GI50 (KM12) | GI50 (OVCAR-3) | GI50 (HCT-15) [µM] | GI50 (SK-OV-3) | GI50 (NCI-H460) | GI50 (RXF 393) | GI50 (SNB-78)
1 | CC1(C)[C@@H]2CC[C@@]1(C)C1(S[S+]1[O-])C21Cc2ccccc2C1 (stereo partly specified) | 28.7 µM (inactive) | 5.25 µM (inactive) | 23.8 µM (inactive) | 36.8 µM (inactive) | 15.1 µM (inactive) | 31 µM (inactive) | 16.3 µM (inactive) | 30.6 µM (inactive) | 23.1 µM (inactive) | 18.8 µM (inactive) | 29.4 µM (inactive) | 14.7 µM (inactive) | 18.5 µM (inactive) | 56.1 µM (inactive) | 31.7 µM (inactive) | 22.6 | > 100 µM (inactive) | 21.5 µM (inactive) | 18.5 µM (inactive) | –
2 | COc1ccc(/C=C/c2cnnc3ccccc23)cc1OC | > 10 µM (inactive) | > 10 µM (inactive) | > 10 µM (inactive) | > 10 µM (inactive) | > 10 µM (inactive) | 5.46 µM (inactive) | > 10 µM (inactive) | > 10 µM (inactive) | > 10 µM (inactive) | > 10 µM (inactive) | > 10 µM (inactive) | > 10 µM (inactive) | > 10 µM (inactive) | > 10 µM (inactive) | > 10 µM (inactive) | > 10 | > 10 µM (inactive) | > 10 µM (inactive) | > 10 µM (inactive) | –
3 | Cc1c(-c2nc(N)nc(C3CC3)c2C)nc(N)nc1C1CC1 | > 100 µM (inactive) | > 100 µM (inactive) | > 100 µM (inactive) | > 100 µM (inactive) | > 100 µM (inactive) | > 100 µM (inactive) | > 100 µM (inactive) | > 100 µM (inactive) | > 100 µM (inactive) | > 100 µM (inactive) | > 100 µM (inactive) | > 100 µM (inactive) | > 100 µM (inactive) | > 100 µM (inactive) | > 100 µM (inactive) | > 100 | > 100 µM (inactive) | > 100 µM (inactive) | > 100 µM (inactive) | –
4 | CC(C)(C)c1cc2nc(c1)C(C(F)(F)F)(C(F)(F)F)OB(Br)OC2(C(F)(F)F)C(F)(F)F | – | < 0.01 µM (active) | < 0.01 µM (active) | < 0.01 µM (active) | 0.0378 µM (active) | 3.56 µM (inactive) | < 0.01 µM (active) | < 0.01 µM (active) | 4.8 µM (inactive) | 0.0802 µM (active) | – | – | 0.233 µM (active) | < 0.01 µM (active) | < 0.01 µM (active) | 0.0299 | 1.3 µM (inactive) | – | 10 µM (inactive) | 0.12 µM (active)
5 | CCCCCCCCCCCCC1N=C(N)N2CCCC2=C1C(=O)OC (stereo unspecified) | 22.6 µM (inactive) | 1.61 µM (inactive) | 14.7 µM (inactive) | 8.67 µM (inactive) | 1.51 µM (inactive) | 1.54 µM (inactive) | 1.47 µM (inactive) | 1.95 µM (inactive) | 1.69 µM (inactive) | 7.62 µM (inactive) | 1.86 µM (inactive) | 1.73 µM (inactive) | 1.84 µM (inactive) | 1.98 µM (inactive) | 2.14 µM (inactive) | 1.79 | 8.49 µM (inactive) | 1.79 µM (inactive) | 47.8 µM (inactive) | –
6 | CSc1cc(Cl)c(C(=O)Nc2ccccc2)cc1S(=O)(=O)n1ccnc1O | > 100 µM (inactive) | > 100 µM (inactive) | > 100 µM (inactive) | > 100 µM (inactive) | > 100 µM (inactive) | > 100 µM (inactive) | > 100 µM (inactive) | > 100 µM (inactive) | > 100 µM (inactive) | > 100 µM (inactive) | > 100 µM (inactive) | > 100 µM (inactive) | > 100 µM (inactive) | > 100 µM (inactive) | > 100 µM (inactive) | > 100 | > 100 µM (inactive) | > 100 µM (inactive) | > 100 µM (inactive) | –
7 | CNCCCCN(C)/[N+]([O-])=N\O | – | > 100 µM (inactive) | > 100 µM (inactive) | > 100 µM (inactive) | – | 49.2 µM (inactive) | > 100 µM (inactive) | > 100 µM (inactive) | > 100 µM (inactive) | – | – | > 100 µM (inactive) | > 100 µM (inactive) | > 100 µM (inactive) | > 100 µM (inactive) | > 100 | > 100 µM (inactive) | > 100 µM (inactive) | > 100 µM (inactive) | > 100 µM (inactive)
8 | CC(C)/C(Cl)=N\OC(=O)Nc1ccc(F)c([N+](=O)[O-])c1 | 19.2 µM (inactive) | 0.902 µM (active) | 11.7 µM (inactive) | 23.9 µM (inactive) | 4.54 µM (inactive) | 14.2 µM (inactive) | 1.57 µM (inactive) | 2.03 µM (inactive) | 12.6 µM (inactive) | 6.22 µM (inactive) | 12.3 µM (inactive) | 3.08 µM (inactive) | 10.5 µM (inactive) | 14.6 µM (inactive) | 14.2 µM (inactive) | 2.59 | 19.1 µM (inactive) | 2.41 µM (inactive) | 18 µM (inactive) | –
